Patent publication US20140336159A1, “METHODS FOR TREATING AND DIAGNOSING RESPIRATORY TRACT INFECTIONS” (PULMATRIX, INC., priority 2011, published 2014)

Experiments:
[1] = test system: LPS stimulated peritoneal macrophages (TRPV channels); assay: Cytokine secretion by LPS stimulated macrophages treated with TRPV channel antagonists; assay type: cell-based, mouse
Excerpt: The transient receptor potential V (TRPV) family of ion channels is sensitive to osmotic changes and has an intimate relationship with levels of intracellular calcium. […] In order to determine the influence of TRPV channels Ruthenium red, a potent, broad acting TRPV channel antagonist was used. […] The results can be seen in FIG. 20A. […] Following two hours, supernatants were collected for LUMINEX analysis of inflammatory cytokines. […] However, while treatment with SKF96365 did have an effect on LPS stimulated macrophages, it was not as pronounced as that of treatment with ruthenium red.

Influenza A/WSN/33/1 = assay type: cell-based
[2] = test system: LPS stimulated peritoneal macrophages; assay: Cytokine secretion by LPS stimulated peritoneal macrophages; assay type: cell-based, mouse (C57BL/6); settings: for LPS induced inflammatory mediator secretion (KC, IL-6): mouse macrophages, 10 ng/ml LPS, 2 hours, salts 0-50 mM
Excerpt: Macrophages represent a key component of the innate immune system. Alveolar macrophages are thought to play a central role in disease pathogenesis by secreting pro-inflammatory cytokines and chemokines in the context of both chronic obstructive pulmonary disease (COPD) and cystic fibrosis (CF), two respiratory illnesses involving airway inflammation. It was hypothesized that given the prominent role of alveolar macrophages in LPS induced lung inflammation, it may be possible that Ca^2+-ion containing formulations directly influence the inflammatory response of the macrophage after LPS exposure. In order to test this hypothesis in-vitro, murine peritoneal macrophages were isolated. C57BL/6 female mice were anesthetized using isofluorane inhalant. […] To confirm macrophage phenotype, a cytospin preparation was performed. Cells were cultured in DMEM:F12 overnight. The following day the media was removed and the macrophages were exposed to media supplemented with varying concentrations of LPS (1 ng/ml to 1 microgram/ml), a dose range of supplemental calcium chloride (5 mM to 50 mM) as well as a dose range of calcium chloride in the presence of LPS for 2 hours. After 2 hours in culture the media was collected for analysis of inflammatory cytokines using LUMINEX® Multiplex immunoassays (Invitrogen/Life Technologies, Grand Island, N.Y.) and BIO-PLEX MANAGER™ software (Version 6) (Bio-Rad, Hercules, Calif.). Presto blue or trypan blue assays were used to determine cell viability. […] The media content for 3 representative inflammatory mediators (IL-6, KC and TNF-alpha) cultured under LPS free conditions (unstimulated) as well as cells exposed to 1 ng/ml LPS were analyzed.
(§1) To determine the effects of alternating the cation in the calcium chloride salt, LPS stimulated human or mouse macrophages were exposed to alternative divalent and monovalent cations, magnesium chloride and sodium chloride, as well as an alternative […] anion, calcium lactate. Normal human monocytes were differentiated into macrophage derived monocytes in culture for 7 days as described in Example 16, and perotineal derived mouse macrophages were described in Example 15. Following two hours of incubation with LPS (10 ng/ml) and the appropriate salt concentration, supernatants were collected for LUMINEX protein analysis of inflammatory cytokines.

human macrophages = assay: Cytokine secretion by LPS stimulated human monocyte-derived macrophages (normal and COPD-derived); assay type: cell-based; settings: 10 ng/ml LPS, 2 hours; for LPS induced cytokine production (IL-8, IL-6): human macrophages, salts 0-50 mM
Protocol: Normal and COPD-derived human monocytes were differentiated into macrophage derived monocytes in culture for 7 days. Cells were thawed following storage in liquid nitrogen, and then plated at 2.0-2.5×10^5 cells/well (in 0.2 ml per well) in IMDM cell culture media containing 10% human serum and human GM-CSF (50 ng/ml). On day 7, assays were performed on the cells, using media containing serum but no GM-CSF. Cells were stimulated with 10 ng/ml LPS, and exposed to calcium chloride concentrations of either 10 or 25 mM. Following two hours, supernatants were collected for LUMINEX analysis of IL-8, IL-6, TNF alpha and MIP-1 alpha (FIG. 17A), IL-8 only for COPD (FIG. 17B). […] Calcium chloride reduced LPS induced inflammation in normal and COPD-derived human monocyte-derived macrophages.
as §1

TLR 5 = TLR 5 (Mus musculus, UniProt Q9JLF7); settings: TLR 5 ligand; negative values indicate increased KC
Protocol: (§2) It was hypothesized that calcium likely alters the immune response to LPS and possibly other TLR receptors in alveolar macrophages. To test this hypothesis, primary macrophages were isolated from mice. Briefly, C57BL/6 female mice were anesthetized using isofluorane inhalant. Animals were injected i.p. with 1.5 ml thioglycollate. Three to four days post injection mice were euthanized using CO2 to harvest peritoneal macrophages. Under sterile conditions, the abdominal wall was exposed and the peritoneal cavity was injected with 7 ml of lavage media, which was immediately recovered back into the syringe and deposited into a 50 mL conical tube. The peritoneal cavity was opened and the residual lavage media was recovered. Cell suspensions were centrifuged at 1200 rpm (RT-6000) for 8-10 minutes. The supernatant was removed and cell pellets were resuspended in 1-2 ml lysis buffer, incubated at room temperature (RT) for 1-2 minutes, and resuspended in18-19 ml cell culture media (DMEM/F-12). Cells were again centrifuged, supernatants were removed, the cell pellets were pooled, washed once more in cell culture media, centrifuged, and resuspended in 10 ml cell culture media, and cells were counted using a hemocytometer. To confirm macrophage phenotype, a cytospin preparation was performed. Cells were cultured in DMEM:F12 overnight. Cells were then stimulated with agonists to TLR4 (LPS or LipidA), TLR1/2 (pam3CSK4), TLR2/6 (FLS-1), TLR2 (LT-SA), TLR3 (Poly I:C), TLR 5 (Flagellin), TLR7 (Gardiquimod or Loxoribine) and TLR9 (CPG-ODN) ligands with 0, 10 or 25 mM calcium chloride supplemented to the media.

TLR1/2 = TLR1/2 (Mus musculus, UniProt Q9EPQ1+Q9QUN7); settings: TLR 1/2 ligand; negative values indicate increased KC
Protocol: as §2

TLR2 = TLR2 (Mus musculus, UniProt Q9QUN7); settings: TLR 2 ligand; negative values indicate increased KC
Protocol: as §2

TLR2/6 = TLR2/6 (Mus musculus, UniProt Q9EPW9+Q9QUN7); settings: TLR 2/6 ligand; negative values indicate increased KC
Protocol: as §2

TLR3 = TLR3 (Mus musculus, UniProt Q99MB1); settings: TLR 3 ligand; negative values indicate increased KC
Protocol: as §2

TLR4 = TLR4 (Mus musculus, UniProt Q9QUK6); settings: TLR 4 ligand; negative values indicate increased KC
Protocol: as §2

TLR7 = TLR7 (Mus musculus, UniProt P58681); settings: TLR 7 ligand; negative values indicate increased KC
Protocol: as §2

TLR9 = TLR9 (Mus musculus, UniProt Q9EQU3); settings: TLR 9 ligand; negative values indicate increased KC
Protocol: as §2

[3] = test system: LPS stimulated peritoneal macrophages
Protocol: Following 2 hours of incubation, cells were lysed, RNA was isolated, and a cDNA reaction was performed. RNA was harvested using the QIAGEN (Germantown, Md.) RNeasy® Plus Mini kit according to the manufacturer's Animal Cell Protocol (2005). RNA concentration and purity was determined by spectrophotometry using NANODROP 1000 spectrophotometer (Thermo Fisher Scientific, Wilmington, Del.). The expression of KC, IL-6, and TNF alpha were assessed by quantitative PCR. RNA expression levels of selected genes were quantified using the delta/delta C(t) (ΔΔCt) method using the expression of 18S as an internal reference for each sample. RNA was quantified by a two-step procedure in which RNA was converted to cDNA by reverse transcription using the iSCRIPT cDNA Synthesis kit from Bio-Rad followed by quantitative PCR (qPCR) using iQ SYBR Green Supermix from Bio-Rad.
The following cDNA synthesis reaction conditions were used: […]
The following quantitative PCR reaction conditions were used: […]
Data were collected and analyzed using the (delta/delta) ΔΔCt method. […] The fold change was then determined by the equation: 2^−ΔΔCt. […]

[4] = test system: macrophages stimulated with S. pneumoniae; settings: S. pneumoniae challenge, 0, 5, 10, 25 mM, 2 hours
Protocol: (§3) To assess the level of bacterial induced inflammation in isolated peritoneal murine macrophages, isolated cells were placed in cell culture media and allowed to adhere to 96 well plates overnight. […] Following two hours of incubation, supernatants were collected for LUMINEX analysis of KC and TNF alpha with the results shown in FIG. 19.

[5] = test system: macrophages stimulated with K. pneumoniae; settings: 1×10^7 CFU/ml K. pneumoniae, 0, 5, 10, 25 mM, 2 hours
Protocol: as §3

neutrophils in the BAL = assay: Ozone exposure mouse model; assay type: in vivo, mouse (BALB/cJ); settings: 100 microgram/kg intranasal
Protocol: Female wild-type (BALB/cJ) were obtained from The Jackson Laboratory (Bar Harbor. ME) at six weeks of age. Mice were treated with dry powder formulations Leucine (98% leucine, 2% sodium chloride) and Formulation II (75% calcium lactate, 20% leucine, 5% sodium chloride) in a temperature and humidity controlled room (30±5% RH and 20±2° C.) or administered liquid treatments of a p38 MAP kinase inhibitor (100 microgram/kg, Tocris SB203580), and USP-Grade Saline (0.9% NaCl), Cardinal Health via the intranasal route. Naïve mice were not exposed to dry powder treatment. One hour following the end of treatment, conscious mice were placed in a custom plastic exposure chamber (26 cm×16 cm×12 cm, Braintree Scientific) on a heated pad at 37° C. Ozone was generated via corona discharge using OZ-2AD Ozone Generator (Ozone Solutions, Hull, Iowa) and diluted with 2.0 LPM (liter per minute) of USP breathing air (MedTech, Medford, Mass.) to a concentration of 3 ppm. The concentration inside the exposure chamber was sampled continuously at 1.0 LPM using UV-106L Ozone Analyzer (Ozone Solutions, Hull, Iowa). Mice were exposed to ozone for 1 hour. Control mice were placed in static cages and exposed to ambient air for a duration matched to each ozone exposure. Mice were euthanized 4 hours following the end of the ozone or air exposure using a fatal dose of pentobarbital. BAL and cell counts were performed. […]

Sequence of TLR 5 (Q9JLF7 27-859): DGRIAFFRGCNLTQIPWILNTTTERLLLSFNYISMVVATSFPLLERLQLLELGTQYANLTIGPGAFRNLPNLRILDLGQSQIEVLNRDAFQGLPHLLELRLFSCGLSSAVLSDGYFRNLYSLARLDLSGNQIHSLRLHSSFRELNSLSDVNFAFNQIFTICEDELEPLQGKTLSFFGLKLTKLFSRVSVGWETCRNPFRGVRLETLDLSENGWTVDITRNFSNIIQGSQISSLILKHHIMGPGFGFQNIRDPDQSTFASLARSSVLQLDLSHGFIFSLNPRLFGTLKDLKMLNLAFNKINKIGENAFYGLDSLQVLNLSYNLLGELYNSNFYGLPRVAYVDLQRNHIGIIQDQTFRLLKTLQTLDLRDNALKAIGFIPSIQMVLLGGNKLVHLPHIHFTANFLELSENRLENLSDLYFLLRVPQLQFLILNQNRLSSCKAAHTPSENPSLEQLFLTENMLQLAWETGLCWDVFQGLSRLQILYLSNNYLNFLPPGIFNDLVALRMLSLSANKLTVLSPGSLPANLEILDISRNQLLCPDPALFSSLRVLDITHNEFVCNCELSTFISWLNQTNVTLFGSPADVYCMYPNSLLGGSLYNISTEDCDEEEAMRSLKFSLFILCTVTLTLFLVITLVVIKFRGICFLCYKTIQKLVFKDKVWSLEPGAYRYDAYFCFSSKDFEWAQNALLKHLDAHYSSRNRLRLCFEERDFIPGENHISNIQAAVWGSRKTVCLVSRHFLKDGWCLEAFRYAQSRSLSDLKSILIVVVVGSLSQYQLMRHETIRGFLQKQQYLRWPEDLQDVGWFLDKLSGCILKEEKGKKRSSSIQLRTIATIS
Sequence of TLR2 (Q9QUN7 25-784): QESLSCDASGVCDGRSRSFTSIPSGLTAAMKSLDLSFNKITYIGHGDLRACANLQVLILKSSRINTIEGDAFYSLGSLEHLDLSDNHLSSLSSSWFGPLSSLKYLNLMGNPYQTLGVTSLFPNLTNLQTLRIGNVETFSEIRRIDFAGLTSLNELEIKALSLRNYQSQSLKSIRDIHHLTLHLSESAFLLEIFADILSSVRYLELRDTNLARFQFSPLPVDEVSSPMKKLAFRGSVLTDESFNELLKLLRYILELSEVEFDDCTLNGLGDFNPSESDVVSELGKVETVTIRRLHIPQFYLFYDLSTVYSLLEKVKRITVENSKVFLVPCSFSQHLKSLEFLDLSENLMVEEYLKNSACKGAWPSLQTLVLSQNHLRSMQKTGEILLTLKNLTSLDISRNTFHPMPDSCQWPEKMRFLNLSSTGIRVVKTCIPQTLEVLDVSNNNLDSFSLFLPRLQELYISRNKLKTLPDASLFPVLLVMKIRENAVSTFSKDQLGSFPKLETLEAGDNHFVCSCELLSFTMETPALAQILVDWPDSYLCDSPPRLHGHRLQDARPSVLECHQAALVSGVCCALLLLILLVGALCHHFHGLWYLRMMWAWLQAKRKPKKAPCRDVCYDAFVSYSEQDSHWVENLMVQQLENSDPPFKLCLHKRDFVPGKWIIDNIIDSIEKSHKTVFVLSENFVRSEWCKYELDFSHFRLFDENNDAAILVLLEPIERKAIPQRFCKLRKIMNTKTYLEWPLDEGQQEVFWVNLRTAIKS
Sequence of TLR2/6 (Q9QUN7 25-784): as above
Sequence of TLR2/6 (Q9EPW9 28-795): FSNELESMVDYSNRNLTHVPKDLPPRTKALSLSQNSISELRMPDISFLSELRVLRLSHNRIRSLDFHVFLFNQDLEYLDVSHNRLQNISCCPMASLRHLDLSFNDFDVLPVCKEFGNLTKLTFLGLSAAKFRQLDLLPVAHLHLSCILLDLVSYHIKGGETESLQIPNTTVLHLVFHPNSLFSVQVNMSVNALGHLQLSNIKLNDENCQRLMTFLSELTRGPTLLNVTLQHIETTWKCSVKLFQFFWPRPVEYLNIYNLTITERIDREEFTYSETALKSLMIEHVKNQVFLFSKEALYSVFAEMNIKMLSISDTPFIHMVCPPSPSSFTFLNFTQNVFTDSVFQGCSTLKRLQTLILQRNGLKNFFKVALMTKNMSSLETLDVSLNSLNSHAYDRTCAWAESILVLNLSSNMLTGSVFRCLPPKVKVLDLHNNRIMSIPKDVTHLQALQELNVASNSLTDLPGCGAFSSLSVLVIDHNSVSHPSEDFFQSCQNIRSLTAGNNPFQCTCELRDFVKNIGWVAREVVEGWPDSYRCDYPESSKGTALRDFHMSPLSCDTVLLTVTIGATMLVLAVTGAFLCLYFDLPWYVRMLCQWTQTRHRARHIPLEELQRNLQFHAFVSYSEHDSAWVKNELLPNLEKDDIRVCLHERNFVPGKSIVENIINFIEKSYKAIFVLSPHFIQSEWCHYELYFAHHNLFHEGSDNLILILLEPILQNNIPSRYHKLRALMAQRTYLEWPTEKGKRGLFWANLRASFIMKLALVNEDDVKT
Sequence of TLR9 (Q9EQU3 26-1032): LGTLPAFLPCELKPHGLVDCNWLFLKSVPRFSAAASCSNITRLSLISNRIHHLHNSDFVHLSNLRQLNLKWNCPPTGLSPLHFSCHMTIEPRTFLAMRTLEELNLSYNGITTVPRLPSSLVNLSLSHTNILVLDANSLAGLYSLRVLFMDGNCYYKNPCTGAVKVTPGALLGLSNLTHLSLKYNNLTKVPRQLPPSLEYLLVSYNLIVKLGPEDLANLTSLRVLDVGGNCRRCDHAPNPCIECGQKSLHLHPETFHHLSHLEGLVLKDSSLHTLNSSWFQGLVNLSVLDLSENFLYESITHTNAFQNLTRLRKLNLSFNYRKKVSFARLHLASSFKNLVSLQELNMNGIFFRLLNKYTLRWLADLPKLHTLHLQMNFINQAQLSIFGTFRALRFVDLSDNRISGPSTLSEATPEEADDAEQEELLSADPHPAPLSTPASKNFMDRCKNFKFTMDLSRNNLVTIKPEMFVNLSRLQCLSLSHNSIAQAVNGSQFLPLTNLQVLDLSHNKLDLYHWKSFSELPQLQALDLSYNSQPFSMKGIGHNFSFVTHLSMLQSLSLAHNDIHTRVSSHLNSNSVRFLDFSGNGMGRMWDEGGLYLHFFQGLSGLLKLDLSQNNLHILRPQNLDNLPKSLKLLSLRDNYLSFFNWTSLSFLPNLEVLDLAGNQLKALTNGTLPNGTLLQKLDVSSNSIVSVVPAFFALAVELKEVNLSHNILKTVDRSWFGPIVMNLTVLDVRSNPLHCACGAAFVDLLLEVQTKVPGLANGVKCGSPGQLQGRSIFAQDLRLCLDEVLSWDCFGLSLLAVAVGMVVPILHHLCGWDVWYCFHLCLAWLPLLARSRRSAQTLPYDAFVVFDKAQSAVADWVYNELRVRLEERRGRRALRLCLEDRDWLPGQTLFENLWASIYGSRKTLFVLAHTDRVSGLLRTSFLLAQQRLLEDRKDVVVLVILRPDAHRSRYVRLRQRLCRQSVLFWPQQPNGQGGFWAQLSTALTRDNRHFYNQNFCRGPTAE
Sequence of TLR7 (P58681 27-1050): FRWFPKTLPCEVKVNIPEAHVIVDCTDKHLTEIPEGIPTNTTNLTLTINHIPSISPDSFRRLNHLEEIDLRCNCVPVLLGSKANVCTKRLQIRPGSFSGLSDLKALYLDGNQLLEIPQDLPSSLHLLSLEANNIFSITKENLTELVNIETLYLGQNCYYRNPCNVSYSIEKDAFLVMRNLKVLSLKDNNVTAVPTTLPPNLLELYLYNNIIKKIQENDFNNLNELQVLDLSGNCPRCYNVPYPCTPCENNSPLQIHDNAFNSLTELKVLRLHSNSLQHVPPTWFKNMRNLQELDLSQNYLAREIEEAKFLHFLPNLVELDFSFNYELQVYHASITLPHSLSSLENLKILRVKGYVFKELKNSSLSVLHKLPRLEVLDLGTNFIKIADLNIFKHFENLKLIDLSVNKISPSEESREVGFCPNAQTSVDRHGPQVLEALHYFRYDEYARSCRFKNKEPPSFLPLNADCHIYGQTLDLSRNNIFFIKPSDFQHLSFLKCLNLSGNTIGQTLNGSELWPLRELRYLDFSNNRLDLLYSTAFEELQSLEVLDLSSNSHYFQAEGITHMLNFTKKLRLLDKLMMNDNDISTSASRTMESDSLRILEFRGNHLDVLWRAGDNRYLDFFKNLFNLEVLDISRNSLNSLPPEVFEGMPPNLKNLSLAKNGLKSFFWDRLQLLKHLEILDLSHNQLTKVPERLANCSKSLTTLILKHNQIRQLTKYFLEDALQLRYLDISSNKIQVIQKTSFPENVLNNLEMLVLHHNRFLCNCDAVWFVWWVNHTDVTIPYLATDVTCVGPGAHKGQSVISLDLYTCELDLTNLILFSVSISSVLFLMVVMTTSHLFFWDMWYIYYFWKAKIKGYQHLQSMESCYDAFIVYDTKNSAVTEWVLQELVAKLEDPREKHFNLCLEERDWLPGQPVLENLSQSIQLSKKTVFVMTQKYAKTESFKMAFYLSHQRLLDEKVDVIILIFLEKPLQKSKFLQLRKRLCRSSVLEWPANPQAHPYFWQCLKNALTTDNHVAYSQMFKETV

## COc1ccc(CCCOC(Cn2ccnc2)c2ccc(OC)cc2)cc1 (stereo not shown) [SKF 96365]
[1]; 5, 20, 50 micromolar, 10 ng/ml LPS, 2 hours
  KC and IL-6 concentrations: dose dependent decrease
[1]; 20 and 50 micromolar, 10 ng/ml LPS
  TNF alpha concentration: reduced at the highest two doses
[1]; 50 micromolar, 10 ng/ml LPS
  decrease in KC concentration: 51%
[1]; along with 10 mM calcium chloride, compared to calcium chloride alone
  KC and TNF alpha reduction: small increase

## CC(=O)N[C@H]1[C@H]([C@H](O)[C@H](O)CO)OC(C(=O)O)=C[C@@H]1N=C(N)N [Zanamivir, zanamivir]
Influenza A/WSN/33/1
  viral infection / Influenza titer versus untreated (Air) control: reduced viral infection in a dose responsive manner

## [Ca+2].[Cl-].[Cl-] [calcium chloride]
[2]; 1 ng/ml LPS, 2 hours, 10, 25, 50 mM, compared to untreated (0) cells
  protein secretion of KC, IL-6 and TNF alpha: significantly reduced
[2]; Presto blue or trypan blue assays
  cell viability: generally did not affect cell viability
[2]
  LPS induced inflammatory mediator secretion (KC, IL-6): decreased
[2]; no LPS, increasing calcium chloride content
  inflammatory mediator release of unstimulated cells: mild increase
Human macrophages; 25 mM, to near that of non-LPS challenged cells
  inflammatory cytokine secretion (IL-8, IL-6, TNF alpha, MIP-1 alpha; IL-8 only for COPD): significant decline
Human macrophages
  LPS induced cytokine production (IL-8, IL-6): of lesser magnitude than calcium lactate but more potent than sodium chloride
TLR 5
  % KC reduction at 10 mM calcium ion: 54 ± 6%
  % KC reduction at 25 mM calcium ion: 50 ± 2%
TLR1/2
  % KC reduction at 10 mM calcium ion: −1 ± 9%
  % KC reduction at 25 mM calcium ion: −27 ± 58%
TLR2
  % KC reduction at 10 mM calcium ion: 46 ± 10%
  % KC reduction at 25 mM calcium ion: 85 ± 9%
TLR2/6
  % KC reduction at 10 mM calcium ion: −25 ± 11%
  % KC reduction at 25 mM calcium ion: −51 ± 27%
TLR3
  % KC reduction at 10 mM calcium ion: 81 ± 7%
  % KC reduction at 25 mM calcium ion: 76 ± 16%
TLR4
  % KC reduction at 10 mM calcium ion: 68 ± 15%
  % KC reduction at 25 mM calcium ion: 75 ± 13%
TLR7
  % KC reduction at 10 mM calcium ion: −10 ± 41%
  % KC reduction at 25 mM calcium ion: −20 ± 49%
TLR9
  % KC reduction at 10 mM calcium ion: −55 ± 51%
  % KC reduction at 25 mM calcium ion: −144%
[3]; 1 ng/ml LPS, 2 hours, 10, 25, 50 mM, compared to untreated (0)
  gene expression of KC, IL-6 and TNFα: significantly reduced
[3]; LPS stimulated
  NRIP1 gene expression: significantly reduced
[4]
  inflammatory mediator secretion (KC, TNF alpha): little effect
[5]
  inflammatory mediator secretion (KC, TNF alpha): dose-dependent decrease

## CC(O)C(=O)[O-].CC(O)C(=O)[O-].[Ca+2] (stereo not shown) [calcium lactate]
[2]
  LPS induced inflammatory mediator secretion (KC, IL-6): more profound effect
Human macrophages
  LPS induced cytokine production (IL-8, IL-6): most profound effect

## [Cl-].[Cl-].[Mg+2] [magnesium chloride]
[2]
  LPS induced inflammatory mediator secretion (KC, IL-6): some activity
Human macrophages
  LPS induced cytokine production (IL-8, IL-6): of lesser magnitude than calcium lactate but more potent than sodium chloride

## C[S+]([O-])c1ccc(-c2nc(-c3ccncc3)c(-c3ccc(F)cc3)[nH]2)cc1 (stereo not shown) [p38 MAP kinase inhibitor]
Neutrophils in the BAL
  pulmonary total cell response to ozone exposure: significantly inhibited

## N.N.N.N.N.N.N.N.N.N.N.N.N.N.[Cl-].[Cl-].[Cl-].[Cl-].[Cl-].[Cl-].[O-2].[O-2].[Ru+3].[Ru+3].[Ru+4] [ruthenium red]
[1]; in the presence of 10 mM calcium chloride, 1 ng/ml LPS
  decrease in KC concentration: further enhanced
[1]; ruthenium red alone (1, 5, 10, 20 micromolar), 1 ng/ml LPS, 2 hours
  decrease in KC concentration: more than 50%

## [Cl-].[Na+] [sodium chloride, reference compound]
[2]
  LPS induced inflammatory mediator secretion (KC, IL-6): little influence
Human macrophages
  LPS induced cytokine production (IL-8, IL-6): little influence
